This assay addresses T1, Proteus mirabilis lipase (PML) (Proteus mirabilis, UniProt B4EVM3).
T1 construct: gene PMI0999; N-terminal hexahistidine tag (pET28a, plasmid pTK05), expressed in E. coli BL21Gold(DE3), Ni-NTA purified, tag removal not described
Kind of assay: X-ray crystal structure, […] A. The assay is classed as binding. The note with it: covalent; diethyl adduct on Ser79 O-gamma; treated with 2 mM paraoxon, 0.6% Triton X100, 18 h, 25 °C, pH 7.5.

We go through one molecule from paper PMC3530535, “Crystal Structure of Proteus mirabilis Lipase, a Novel Lipase from the Proteus/Psychrophilic Subfamily of Lipase Family I.1” (PLoS ONE, 2012).

T1 sequence (B4EVM3 entry or part of it): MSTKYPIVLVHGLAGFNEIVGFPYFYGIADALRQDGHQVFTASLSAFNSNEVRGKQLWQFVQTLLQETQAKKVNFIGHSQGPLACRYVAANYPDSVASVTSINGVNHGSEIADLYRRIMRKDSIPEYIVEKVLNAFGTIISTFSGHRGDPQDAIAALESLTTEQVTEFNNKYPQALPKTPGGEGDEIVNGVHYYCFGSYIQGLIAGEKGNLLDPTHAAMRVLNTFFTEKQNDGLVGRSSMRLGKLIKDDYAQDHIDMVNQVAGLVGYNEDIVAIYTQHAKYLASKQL

As to `CCOP(=O)(OCC)Oc1ccc([N+](=O)[O-])cc1` [DEP, paraoxon], the “X-ray crystal structure, 2.2 A” value is on record as “the small phosphonate inhibitor is covalently bound to the Oγ of S79”.
